BindingDB's records for doi:10.1074/jbc.271.42.26315 (Bayer, 1996)
Values joined by “and” are separate entries in the source; they are usually repeats but may differ in a detail not shown here. Equal entries are not always repeated. Peptide text beside a SMILES is read from it.

Assays:
[1] = biological target: T1, Neuropeptide Y receptor type 5 (Homo sapiens, UniProt Q15761)
T1 sequence (Q15761 whole entry): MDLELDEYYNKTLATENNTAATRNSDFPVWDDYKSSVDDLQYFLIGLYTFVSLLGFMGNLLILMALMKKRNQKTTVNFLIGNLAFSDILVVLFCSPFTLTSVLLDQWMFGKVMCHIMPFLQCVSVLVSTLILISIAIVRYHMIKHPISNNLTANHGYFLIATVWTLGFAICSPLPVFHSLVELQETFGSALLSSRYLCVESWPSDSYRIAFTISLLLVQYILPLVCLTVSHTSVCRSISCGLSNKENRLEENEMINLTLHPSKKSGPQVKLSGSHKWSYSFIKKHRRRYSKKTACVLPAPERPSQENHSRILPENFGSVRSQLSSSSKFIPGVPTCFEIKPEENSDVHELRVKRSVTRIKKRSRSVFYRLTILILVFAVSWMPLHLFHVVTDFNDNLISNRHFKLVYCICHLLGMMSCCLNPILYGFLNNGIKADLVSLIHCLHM

[2] = biological target: T2, Neuropeptide Y receptor type 5 (Rattus norvegicus, UniProt Q63634)
T2 sequence (Q63634 whole entry): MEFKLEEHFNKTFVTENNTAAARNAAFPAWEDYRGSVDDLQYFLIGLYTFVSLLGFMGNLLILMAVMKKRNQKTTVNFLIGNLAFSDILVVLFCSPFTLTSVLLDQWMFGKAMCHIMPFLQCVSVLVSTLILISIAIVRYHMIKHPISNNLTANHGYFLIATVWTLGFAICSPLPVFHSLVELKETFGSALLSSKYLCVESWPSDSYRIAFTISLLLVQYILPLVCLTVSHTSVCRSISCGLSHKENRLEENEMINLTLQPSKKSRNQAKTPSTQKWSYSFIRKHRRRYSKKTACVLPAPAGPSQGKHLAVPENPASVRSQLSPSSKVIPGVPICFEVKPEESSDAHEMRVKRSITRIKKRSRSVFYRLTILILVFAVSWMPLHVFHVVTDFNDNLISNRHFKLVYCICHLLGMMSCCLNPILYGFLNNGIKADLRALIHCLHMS

Row | Compound | Ki [1] | Ki [2]
1 | CC[C@H](C)[C@H](NC(=O)[C@H](Cc1ccc(O)cc1)NC(=O)[C@H](Cc1cnc[nH]1)NC(=O)[C@H](CCCN=C(N)N)NC(=O)[C@H](CC(C)C)NC(=O)[C@H](C)NC(=O)[C@@H](N)CO)C(=O)N[C@@H](CC(N)=O)C(=O)N[C@@H](CC(C)C)C(=O)N[C@H](C(=O)N[C@H](C(=O)N[C@@H](CCCN=C(N)N)C(=O)N[C@@H](CCC(N)=O)C(=O)N[C@@H](CCCN=C(N)N)C(=O)N[C@@H](Cc1ccc(O)cc1)C(N)=O)[C@@H](C)O)[C@@H](C)CC [NPY22-36, rat, human] | 1000 nM | 1000 nM
2 | CC[C@H](C)[C@H](NC(=O)[C@H](Cc1ccc(O)cc1)NC(=O)[C@H](CCCNC(=N)N)NC(=O)[C@H](CCCNC(=N)N)NC(=O)[C@H](CC(C)C)NC(=O)[C@H](CCC(N)=O)NC(=O)[C@@H](NC(=O)[C@H](CCC(=O)O)NC(=O)[C@H](Cc1ccc(O)cc1)NC(=O)[C@H](CCC(N)=O)NC(=O)[C@H](C)NC(=O)[C@H](CCCNC(=N)N)NC(=O)[C@H](CCC(N)=O)NC(=O)[C@H](CCC(=O)O)NC(=O)[C@H](Cc1c[nH]cn1)NC(=O)[C@@H](NC(=O)[C@H](C)NC(=O)[C@H](Cc1ccc(O)cc1)NC(=O)[C@H](CC(=O)O)NC(=O)CNC(=O)[C@@H]1CCCN1C(=O)[C@H](Cc1ccc(O)cc1)NC(=O)[C@H](CCSC)NC(=O)[C@@H]1CCCN1C(=O)[C@H](CCC(=O)O)NC(=O)[C@H](CC(C)C)NC(=O)[C@@H]1CCCN1C(=O)[C@H](C)N)[C@@H](C)O)[C@@H](C)O)C(=O)N[C@@H](CC(N)=O)C(=O)N[C@H](C(=O)N[C@@H](CC(C)C)C(=O)N[C@H](C(=O)N[C@@H](CCCNC(=N)N)C(=O)N1CCC[C@H]1C(=O)N[C@@H](CCCNC(=N)N)C(=O)N[C@@H](Cc1ccc(O)cc1)C(N)=O)[C@@H](C)O)[C@@H](C)O [NSC_41735] | 436 nM | 62 nM and 296 nM
3 | N=C(N)NCCCC(NC(=O)C(c1ccccc1)c1ccccc1)C(=O)NCc1ccc(O)cc1 (stereo unspecified) [NSC_5311023] | – | 1000 nM
4 | CC(C)C[C@H](NC(=O)[C@H](CO)NC(=O)[C@H](C)NC(=O)[C@H](Cc1ccc(O)cc1)NC(=O)[C@H](Cc1ccc(O)cc1)NC(=O)[C@H](CCCNC(=N)N)NC(=O)[C@H](CO)NC(=O)[C@H](CC(C)C)NC(=O)[C@H](CCC(=O)O)NC(=O)[C@H](CCC(=O)O)NC(=O)[C@@H]1CCCN1C(=O)[C@@H](N)CO)C(=O)N[C@@H](CCCNC(=N)N)C(=O)N[C@@H](Cc1c[nH]cn1)C(=O)N[C@@H](Cc1ccc(O)cc1)C(=O)N[C@@H](CC(C)C)C(=O)N[C@@H](CC(N)=O)C(=O)N[C@@H](CC(C)C)C(=O)N[C@H](C(=O)N[C@H](C(=O)N[C@@H](CCCNC(=N)N)C(=O)N[C@@H](CCC(N)=O)C(=O)N[C@@H](CCCNC(=N)N)C(=O)N[C@@H](Cc1ccc(O)cc1)C(N)=O)[C@@H](C)O)C(C)C [PYY 3-36, rat] (H-SPEELSRYYASLRHYLNLVTRQRY-NH2) | 10 nM | –
